In patent publication US20260007601A1, “IONIZABLE CATIONIC LIPID COMPOUND AND COMPOSITION FOR DELIVERING NUCLEIC ACID AND USE THEREOF” (BEIJING YOUCAREKECHUANG PHARMACEUTICAL TECHNOLOGY CO., LTD., priority 2023, published 2026):
Values joined by “and” are separate entries in the source; they are usually repeats but may differ in a detail not shown here. Equal entries are not always repeated.

Columns and labels:
[1] = Particle size and polydispersity index (PDI) of nanolipid particles, dynamic light scattering; type: physicochemical; details: LNP formulation prepared from the named cationic lipid, 25° C
Method: The particle size and polydispersity index (PDI) were determined by dynamic light scattering method using a Malvern laser particle size analyzer. 10 μL of liposome solution was diluted to 1 mL with RNase-free deionized water and added to a sample pool. Each sample was measured three times. The measurement conditions were: 90° scattering angle, 25° C.

[2] = Encapsulation rate, drug loading concentration and total RNA concentration detection (RiboGreen); type: physicochemical
female BALB/C mice = assay: Mouse in vivo imaging of Fluc-mRNA LNP formulations; parameters: average radiation intensity (mRNA expression): unit not given here; details: for average radiation intensity (mRNA expression): 10 μg Fluc-mRNA LNP intramuscularly
Outline: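 Female BALB/C mice (4–6 weeks, 17–19 g) received LNP carrying 10 μg Fluc-mRNA intramuscularly. Imaging substrate given intraperitoneally at 6 h, 24 h, 48 h and 7 d; after 5 min free movement, average radiance read by IVIS Spectrum imaging.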

[3] = LNP formulation of the named lipid

For `CCCCCCCCCCCOC(=O)CCCCCN(CCCCCCCC(=O)OC(CCCCCCCC)CCCCCCCC)CCN(C)CCO` [YK-201, heptadecan-9-yl-8-(2-((2-hydroxyethyl)(methylamino))ethyl)(6-oxo-6-((undecanyloxy)hexyl)amino)octanoate], the PDI [1] was 25.5%, the Particle size [1] was 205 nm and the “drug loading concentration, times that of ALC-0315” value [2] was 1.55 times. The “drug loading concentration, times that of HHMA” value [2] was 1.32 times, the “drug loading concentration, times that of SM-102” value [2] was 1.58 times and the “drug loading concentration, times that of YK-009” value [2] was 1.50 times. For the same compound, the “drug loading concentration, times that of compound 21” value [2] was 1.78 times, the “drug loading concentration, times that of compound 23” value [2] was 1.95 times and the “total RNA concentration, times that of ALC-0315” value [2] was 1.21 times. For the same compound, the “total RNA concentration, times that of HHMA” value [2] was 1.19 times, the “total RNA concentration, times that of SM-102” value [2] was 1.28 times and the “total RNA concentration, times that of YK-009” value [2] was 1.17 times. The “total RNA concentration, times that of compound 21” value [2] was 1.47 times and 1.5 times, the “total RNA concentration, times that of compound 23” value [2] was 1.39 times and the Drug loading concentration [2, 3] was 40.32 µg/mL. The Encapsulation rate [2, 3] was 89.5%, the “Total RNA concentration” value [2, 3] was 45.07 µg/mL and the “encapsulation rate higher than that of ALC-0315” value ([2]; difference of rates) was 26.70%. The “encapsulation rate higher than that of HHMA” value ([2]; difference of rates) was 29.00%, the “encapsulation rate higher than that of SM-102” value ([2]; difference of rates) was 27.20% and the “encapsulation rate higher than that of YK-009” value ([2]; difference of rates) was 26.50%. For the same compound, the “encapsulation rate higher than that of compound 21” value ([2]; difference of rates) was 31.70%, the “encapsulation rate higher than that of compound 23” value ([2]; difference of rates) was 34.30% and the “average radiation intensity, times that of ALC-0315” value (female BALB/C mice; 6 h) was 3.39 times. The “average radiation intensity, times that of HHMA” value (female BALB/C mice; 6 h) was 4.47 times, the “average radiation intensity, times that of SM-102” value (female BALB/C mice; 6 h) was 4.21 times and the “average radiation intensity, times that of compound 21” value (female BALB/C mice; 6 h) was 4.76 times. The “average radiation intensity, times that of compound 23” value (female BALB/C mice; 6 h) was 4.81 times, the “mRNA expression level, times that of YK-204” value (female BALB/C mice; 6 h) was 81.10 times and the “mRNA expression level, times that of YK-223” value (female BALB/C mice; 6 h) was 276.05 times. The “average radiation intensity (mRNA expression)” value (female BALB/C mice; 6 h) was 2858500, the “expression level, times that of YK-215” value (female BALB/C mice; 6 hours) was 56.53 times and the “expression level, times that of YK-217” value (female BALB/C mice; 6 hours) was 116.27 times. For the same compound, the “average radiation intensity, times that of ALC-0315” value (female BALB/C mice; 24 h) was 11.11 times, the “average radiation intensity, times that of HHMA” value (female BALB/C mice; 24 h) was 18.47 times and the “average radiation intensity, times that of SM-102” value (female BALB/C mice; 24 h) was 17.49 times. For the same compound, the “average radiation intensity, times that of compound 21” value (female BALB/C mice; 24 h) was 18.76 times, the “average radiation intensity, times that of compound 23” value (female BALB/C mice; 24 h) was 18.27 times and the “mRNA expression level, times that of YK-204” value (female BALB/C mice; 24 h) was 387.32 times. The “mRNA expression level, times that of YK-223” value (female BALB/C mice; 24 h) was 1134.20 times, the “average radiation intensity (mRNA expression)” value (female BALB/C mice; 24 h) was 2025680 and the “expression level, times that of YK-215” value (female BALB/C mice; 24 hours) was 297.24 times. The “expression level, times that of YK-217” value (female BALB/C mice; 24 hours) was 764.41 times, the “average radiation intensity, times that of ALC-0315” value (female BALB/C mice; 48 h) was 19.16 times and the “average radiation intensity, times that of HHMA” value (female BALB/C mice; 48 h) was 24.82 times. For the same compound, the “average radiation intensity, times that of SM-102” value (female BALB/C mice; 48 h) was 23.91 times, the “average radiation intensity, times that of compound 21” value (female BALB/C mice; 48 h) was 24.34 times and the “average radiation intensity, times that of compound 23” value (female BALB/C mice; 48 h) was 22.78 times. The “mRNA expression level, times that of YK-204” value (female BALB/C mice; 48 h) was 299.49 times, the “mRNA expression level, times that of YK-223” value (female BALB/C mice; 48 h) was 1077.82 times and the “average radiation intensity (mRNA expression)” value (female BALB/C mice; 48 h) was 730760. For the same compound, the “expression level, times that of YK-215” value (female BALB/C mice; 48 hours) was 200.76 times, the “expression level, times that of YK-217” value (female BALB/C mice; 48 hours) was 713.63 times and the “average radiation intensity, times that of ALC-0315” value (female BALB/C mice; 7 d) was 4.58 times. The “average radiation intensity, times that of HHMA” value (female BALB/C mice; 7 d) was 5.68 times, the “average radiation intensity, times that of SM-102” value (female BALB/C mice; 7 d) was 5.11 times and the “average radiation intensity, times that of compound 21” value (female BALB/C mice; 7 d) was 4.94 times. The “average radiation intensity, times that of compound 23” value (female BALB/C mice; 7 d) was 5.17 times, the “expression level, times that of YK-215” value (female BALB/C mice; 7 d) was 29.56 times and the “expression level, times that of YK-217” value (female BALB/C mice; 7 d) was 57.65 times. For the same compound, the “mRNA expression level, times that of YK-204” value (female BALB/C mice; 7 d) was 39.99 times, the “mRNA expression level, times that of YK-223” value (female BALB/C mice; 7 d) was 68.53 times and the “average radiation intensity (mRNA expression)” value (female BALB/C mice; 7 d) was 30151. For the same compound, the “mRNA expression in mice can reach, times that of YK-204” value (female BALB/C mice; time point not stated) was 380 times.
